A short description of the series: Drug elution from dual-coated stents (17β-estradiol in PEP94 bottom layer, dexamethasone in PEP90 top layer) into aqueous release medium, HPLC analysis. Format: physicochemical. The settings on record: for Percentage Released: bottom layer PEP94, aqueous release medium 37° C.; for Total Microgrammes Released: bottom layer PEP94, loading approx 147 μg, aqueous release medium 37° C. The protocol: This example describes the preparation and elution of stents comprising 17β-estradiol and dexamethasone each contained within a specific ratio of PVB/PnVPA
A coating solution was prepared made up of PEP94 and 17β-estradiol in a blend of chloroform and acetone (80:20 by weight), so that in terms of total solids 25% was 17β-estradiol, 75% polymer.
A second coating solution was prepared made of PEP 90 and dexamethasone in a mixture of chloroform and acetone (80:20 by weight), so that in terms of total solids 25% was dexamethasone, 75% polymer.
The stents were weighed, spray coated in a ratio of 3:1 (estradiol: dexamethasone) with the respective formulations such that the bottom layer comprised PEP94 with 17β-estradiol and the top layer PEP90 with dexamethasone. The stents were then dried overnight at 40° C. under vacuum.
Upon weighing the average coating weight of the stents was 811 μg yielding drug loadings of approx 147 μg±17 μg for 17β-estradiol and 57 μg±16 μg for dexamethasone.
Each stent was placed on a hook and suspended in a vial containing 8 ml of an aqueous release medium with a 5 mm magnetic flea. The vials were placed on a multipoint stirrer set at 1000 rpm and incubated at 37° C. After a given time interval (ranging from 1 hour to several days), the stents were transferred to fresh aliquots of release medium and replaced on the stirrer to resume agitation. The solution containing dexamethasone/17β-estradiol was set aside for analysis.
Analysis of the samples was carried out using HPLC (Agilent 1100 series).

As for `C[C@]12CC[C@@H]3c4ccc(O)cc4CC[C@H]3[C@@H]1CC[C@@H]2O` [17β-estradiol], the “Percentage Released” value reads like this: (time 1 hour) 5.1%; (time 7 hours) 10.5%; (time 24 hours) 17.1%. The “Total Microgrammes Released” value is 7.5 µg (time 1 hour), 15.5 µg (time 7 hours) and 25.1 µg (time 24 hours).

For the origin of these results see patent US20060286139A1, “Polymeric drug release system for medical devices” (priority 2003, published 2006).
